This note sets out measurements from patent US8338587B2, “Compounds” (AstraZeneca AB, priority 2009, dated 2012).

SMILES strings stand for the structures.

The target of this test is T1, recombinant human GR (Homo sapiens, UniProt P04150).
T1 construct: purchased Panvera/Invitrogen P2812 (kit P2893)
T1 sequence (P04150 1-777): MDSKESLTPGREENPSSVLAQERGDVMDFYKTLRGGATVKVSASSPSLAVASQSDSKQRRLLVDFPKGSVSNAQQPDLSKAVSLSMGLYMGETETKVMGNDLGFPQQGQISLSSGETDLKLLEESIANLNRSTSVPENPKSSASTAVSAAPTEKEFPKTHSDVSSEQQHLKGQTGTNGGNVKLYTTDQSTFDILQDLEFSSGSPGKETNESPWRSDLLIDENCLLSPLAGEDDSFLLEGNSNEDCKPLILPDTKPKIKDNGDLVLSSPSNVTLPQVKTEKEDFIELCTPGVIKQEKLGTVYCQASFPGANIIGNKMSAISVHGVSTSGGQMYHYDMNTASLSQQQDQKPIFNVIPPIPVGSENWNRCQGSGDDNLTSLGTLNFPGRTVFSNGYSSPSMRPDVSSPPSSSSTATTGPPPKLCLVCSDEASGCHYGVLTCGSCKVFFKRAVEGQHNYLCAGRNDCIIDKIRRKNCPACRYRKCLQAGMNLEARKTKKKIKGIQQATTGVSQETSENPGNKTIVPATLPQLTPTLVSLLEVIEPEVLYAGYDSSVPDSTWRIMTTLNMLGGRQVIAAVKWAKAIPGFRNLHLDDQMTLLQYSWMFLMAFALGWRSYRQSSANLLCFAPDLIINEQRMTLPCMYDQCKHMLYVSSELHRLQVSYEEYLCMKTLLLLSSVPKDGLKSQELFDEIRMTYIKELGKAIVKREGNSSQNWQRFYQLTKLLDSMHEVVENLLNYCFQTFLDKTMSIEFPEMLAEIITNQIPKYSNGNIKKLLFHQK
Briefly: Human Glucocorticoid Receptor (GR) Assay (fluorescence polarization competition, Panvera/Invitrogen kit). The settings on record: GS Red Fluoromone tracer, 2 hours at room temperature, 100% control 10 μM Dexamethasone, read-out: Inhibition of GR binding, IC50. The procedure: Human Glucocorticoid Receptor (GR) Assay The assay is based on a commercial kit from Panvera/Invitrogen (Part number P2893). The assay technology is fluorescence polarization. The kit utilises recombinant human GR (Panvera, Part number P2812), a Fluoromone™ labelled tracer (GS Red, Panvera, Part number P2894) and a Stabilizing Peptide 10× (Panvera, Part number P2815). The GR and Stabilizing Peptide reagents are stored at −70° C. while the GS Red is stored at −20° C. Also included in the kit are 1M DTT (Panvera, Part number P2325, stored at −20° C.) and GR Screening buffer 10× (Panvera, Part number P2814, stored at −70° C. initially but once thawed stored at room temperature). Avoid repeated freeze/thaws for all reagents. The GR Screening buffer 10× comprises 100 mM potassium phosphate, 200 mM sodium molybdate, 1 mM EDTA and 20% DMSO. Test compounds (1 μL) and controls (1 μL) in 100% DMSO were added to black is polystyrene 384-well plates (Greiner low volume black flat-bottom, part number 784076). 0% control was 100% DMSO and 100% control was 10 μM Dexamethasone. Background solution (8 μL; assay buffer 10×, Stabilizing Peptide, DTT and ice cold MQ water) was added to the background wells. GS Red solution (7 μL; assay buffer 10×, Stabilizing Peptide, DTT, GS Red and ice cold water) was added to all wells except background wells. GR solution (7 μL; assay buffer 10×, Stabilizing Peptide, DTT, GR and ice cold water) was added to all wells. The plate was sealed and incubated in a dark at room temperature for 2 hours. The plate was read in an Analyst plate reader (LJL Biosystems/Molecular Devices Corporation) or other similar plate reader capable of recording fluorescence polarization (excitation wavelength 530 nm, emission wavelength 590 nm and a dichroic mirror at 561 nm).
(In fluorescence polarisation assays a small probe gives low polarisation when free and higher when bound to something large.)
On to `C[C@]12Cc3cnn(-c4ccc(F)nc4)c3C=C1CC[C@H]1[C@@H]3CC[C@](OC(=O)C4CCOC4)(C(=O)SCC#N)[C@@]3(C)C[C@H](O)[C@@]12F` (mixture of isomers) [Example 15 (racemate), (1R,3aS,3bS,10aS,10bR,11S,12aS)-1-{[(Cyanomethyl)sulfanyl]carbonyl}-10b-fluoro-7-(6-fluoropyridin-3-yl)-11-hydroxy-10a,12a-dimethyl-1,2,3,3a,3b,4,5,7,10,10a,10b,11,12,12a-tetradecahydrocyclopenta[5,6]naphtho[1,2-f]indazol-1-yl tetrahydrofuran-3-carboxylate], for which the IC50 was found to be 0.55 nM.
The same measure for `C[C@]12Cc3cnn(-c4ccc(F)nc4)c3C=C1CC[C@H]1[C@@H]3CC[C@](OC(=O)C4CCOC4)(C(=O)SCF)[C@@]3(C)C[C@H](O)[C@@]12F` (mixture of isomers) [Example 16 (racemate), (1R,3aS,3bS,10aS,10bR,11S,12aS)-10b-Fluoro-1-{[(fluoromethyl)sulfanyl]carbonyl}-7-(6-fluoropyridin-3-yl)-11-hydroxy-10a,12a-dimethyl-1,2,3,3a,3b, 4,5,7,10,10a,10b,11,12,12a-tetradecahydrocyclopenta[5,6]naphtho[1,2-f]indazol-1-yl tetrahydrofuran-3-carboxylate]: 0.53 nM; for `C[C@]12Cc3cnn(-c4ccc(F)nc4)c3C=C1CC[C@H]1[C@@H]3CC[C@](OC(=O)C4CCOC4)(C(=O)SCC#N)[C@@]3(C)C[C@H](O)[C@@]12F` (single isomer, unassigned) [15 (R)/(S) isomer]: 0.57 nM.
In the case of `C[C@]12Cc3cnn(-c4ccc(F)nc4)c3C=C1CC[C@H]1[C@@H]3CC[C@](OC(=O)C4CCOC4)(C(=O)SCC#N)[C@@]3(C)C[C@H](O)[C@@]12F` (single isomer, unassigned) [15 (S)/(R) isomer] it was 0.58 nM; in that of `C[C@]12Cc3cnn(-c4ccc(F)nc4)c3C=C1CC[C@H]1[C@@H]3CC[C@](OC(=O)C4CCOC4)(C(=O)SCF)[C@@]3(C)C[C@H](O)[C@@]12F` (single isomer, unassigned) [16 (R)/(S) isomer], 0.44 nM; in that of `C[C@]12Cc3cnn(-c4ccc(F)nc4)c3C=C1CC[C@H]1[C@@H]3CC[C@](OC(=O)C4CCOC4)(C(=O)SCF)[C@@]3(C)C[C@H](O)[C@@]12F` (single isomer, unassigned) [16 (S)/(R) isomer], 1.3 nM.
For `C[C@]12Cc3cnn(-c4ccc(F)cc4)c3C=C1CC[C@@H]1[C@@H]2[C@@H](O)C[C@@]2(C)[C@H]1CC[C@]2(OC(=O)C1CCCO1)C(=O)SCCO` (single isomer, unassigned) [Example 18], the IC50 was found to be 3.1 nM.
The same measure for `CC12Cc3cnn(-c4ccc(F)nc4)c3C=C1CC[C@@H]1C2[C@@H](O)C[C@@]2(C)[C@H]1CC[C@]2(OC(=O)C1CC1)C(=O)OCC#N` (stereo in doubt) [Example 20, (1R,3aS,3bS,10aS,10bR,11S,12aS)-1-{[Cyanomethyloxy]carbonyl}-7-(6-fluoropyridin-3-yl)-11-hydroxy-10a,12a-dimethyl-1,2,3,3a,3b,4,5,7,10,10a,10b,11,12,12a-tetradecahydrocyclopenta[5,6]naphtho[1,2-f]indazol-1-yl cyclopropanecarboxylate]: 2.3 nM; for `COCC(=O)O[C@]1(C(=O)SCF)[C@H](C)C[C@H]2[C@@H]3CCC4=Cc5c(cnn5-c5ccc(F)nc5)C[C@]4(C)[C@@]3(F)[C@@H](O)C[C@@]21C` [Example 1, (1R,2R,3aS,3bS,10aS,10bR,11S,12aS)-10b-Fluoro-1-{[(fluoromethyl)sulfanyl]carbonyl}-7-(6-fluoropyridin-3-yl)-11-hydroxy-2,10a,12a-trimethyl-1,2,3,3a,3b,4,5,7,10,10a,10b,11,12,12a-tetradecahydrocyclopenta[5,6]naphtho[1,2-f]indazol-1-yl methoxyacetate]: 3.5 nM.
For `CCC(=O)O[C@]1(C(=O)SCF)[C@H](C)C[C@H]2[C@@H]3CCC4=Cc5c(cnn5-c5ccc(F)nc5)C[C@]4(C)[C@@]3(F)[C@@H](O)C[C@@]21C` [Example 2, (1R,2R,3aS,3bS,10aS,10bR,11S,12aS)-10b-Fluoro-1-{[(fluoromethyl)sulfanyl]carbonyl}-7-(6-fluoropyridin-3-yl)-11-hydroxy-2,10a,12a-trimethyl-1,2,3,3a,3b,4,5,7,10,10a,10b,11,12,12a-tetradecahydrocyclopenta[5,6]naphtho[1,2-f]indazol-1-yl propanoate], the IC50 was 1.9 nM.
The same measure for `CCC(=O)O[C@]1(C(=O)SCC#N)[C@H](C)C[C@H]2[C@@H]3CCC4=Cc5c(cnn5-c5ccc(F)nc5)C[C@]4(C)[C@@]3(F)[C@@H](O)C[C@@]21C` [Example 3, (1R,2R,3aS,3bS,10aS,10bR,11S,12aS)-1-{[(Cyanomethyl)sulfanyl]carbonyl}-10b-fluoro-7-(6-fluoropyridin-3-yl)-11-hydroxy-2,10a,12a-trimethyl-1,2,3,3a,3b,4,5,7,10,10a,10b,11,12,12a-tetradecahydrocyclopenta[5,6]naphtho[1,2-f]indazol-1-yl propanoate]: 1.6 nM; for `C[C@@H]1C[C@H]2[C@@H]3CCC4=Cc5c(cnn5-c5ccc(F)nc5)C[C@]4(C)[C@@]3(F)[C@@H](O)C[C@]2(C)[C@@]1(OC(=O)c1cocn1)C(=O)SCF` [Example 4, (1R,2R,3aS,3bS,10aS,10bR,11S,12aS)-10b-Fluoro-1-{[(fluoromethyl)sulfanyl]carbonyl}-7-(6-fluoropyridin-3-yl)-11-hydroxy-2,10a,12a-trimethyl-1,2,3,3a,3b,4,5,7,10,10a,10b,11,12,12a-tetradecahydrocyclopenta[5,6]naphtho[1,2-f]indazol-1-yl 1,3-oxazole-4-carboxylate]: 2.8 nM; for `CCC(=O)O[C@]1(C(=O)SCF)[C@H](C)C[C@H]2[C@@H]3CCC4=Cc5c(cnn5-c5ccc(F)cc5)C[C@]4(C)[C@@]3(F)[C@@H](O)C[C@@]21C` [Example 5, (1R,2R,3aS,3bS,10aS,10bR,11S,12aS)-10b-Fluoro-1-{[(fluoromethyl)sulfanyl]carbonyl}-7-(4-fluorophenyl)-11-hydroxy-2,10a,12a-trimethyl-1,2,3,3a,3b,4,5,7,10,10a,10b,11,12,12a-tetradecahydrocyclopenta[5,6]naphtho[1,2-f]indazol-1-yl propanoate]: 11 nM.
In the case of `COCC(=O)O[C@]1(C(=O)SCF)[C@H](C)C[C@H]2[C@@H]3CCC4=Cc5c(cnn5-c5ccc(F)cc5)C[C@]4(C)[C@@]3(F)[C@@H](O)C[C@@]21C` [Example 6, (1R,2R,3aS,3bS,10aS,10bR,11S,12aS)-10b-Fluoro-1-{[(fluoromethyl)sulfanyl]carbonyl}-7-(4-fluorophenyl)-11-hydroxy-2,10a,12a-trimethyl-1,2,3,3a,3b,4,5,7,10,10a,10b,11,12,12a-tetradecahydrocyclopenta[5,6]naphtho[1,2-f]indazol-1-yl methoxyacetate] it was 7.8 nM; in that of `CCC(=O)O[C@]1(C(=O)SCF)CC[C@H]2[C@@H]3C[C@H](C)C4=Cc5c(cnn5-c5ccc(F)nc5)C[C@]4(C)[C@H]3[C@@H](O)C[C@@]21C` [Example 7, (1R,3aS,3bS,5S,10aR,10bS,11S,12aS)-1-{[(Fluoromethyl)sulfanyl]carbonyl}-7-(6-fluoropyridin-3-yl)-11-hydroxy-5,10a,12a-trimethyl-1,2,3,3a,3b,4,5,7,10,10a,10b,11,12,12a-tetradecahydrocyclopenta[5,6]naphtho[1,2-f]indazol-1-yl propanoate], 1.9 nM.

In general, IC50 refers to the concentration needed to halve the response being measured.
